Where two headings read alike, the source gives them in different places.
Legend:
[1] = tested on: HIV-1 virus (BRU) in MT4 cells; assay: Anti-HIV test: inhibition of HIV-1 replication (syncitia formation) in infected MT4 cells; type: cell-based
Excerpt: The evaluation of the antiviral action is based on the study of cytopathogenic effect of HIV-1 Virus on the cell line MT4. The cell line MT4 has as an origin T cells isolated from a patient, transformed by the […]. The cytopathogenic effect of HIV-1 virus is shown by the formation of multinucleated giant cells called <> visible under the microscope. This effect of HIV-1 is observed 4 to 5 days after infection. It is followed with the death of cells.
The cytopathogenic effect is directly correlated to the infection of the cells by the virus, to its intracellular replication and to the expression of viral antigens by the cells. An inhibition of this effect thus corresponds to an inhibition of the multiplication of HIV-1 virus.
The MT4 cells are maintained at 3.10^5 cells/ml in a RPMI 1640 medium : 10% of decomplemented fetal calf serum for 30 mn at 56° C. (hormons, serum growth factors . . . ), 1% glutamine, 1% penicillin streptomycin and 2 μg/ml Polyren which promotes the viral adhesion to the cells.
The action of the treatment by the anti-viral agent is continuous. In fact this effect is present before during and after the viral infection. Successive dilutions are performed in the 10% fetal calf serum to be able to cultivate the MT4 cells for 8 days and to observe the formation of syncithias.
Before infection : 3×10^6 cells/100 μl are distributed in a microtiter plate with 96 wells and centrifugated for 3 min. at 2000 rpm (rounds per minute). The pellet is then pre-incubated for 1 hour at 37° C., with 100 μl of various concentrations of the anti-viral agent to be tested.
Infection : The infection is achieved in microwells while adding 100 TCIU (infection units) of HIV-1 virus (this titer of HIV-1 virus is determined as to induce the formation of syncithias in 4 or 5 days). The anti-viral agent is always present at the time of infection and dilution of the virus at 100 TCIU.
After infection : After incubation for 1 hour at 37° C., the MT4 cells are washed three times with RPMI 1640 medium and cultured on account of 3.10^5 cells per milliliter of each of the concentration of the compounds to be tested on plates of 24 wells. When passing at day D3 the MT4 cells are diluted to 1/3. The concentration of the anti-viral agent is maintained. Each day occurrence of syncithia is observed under the microscope to detect any optional delay with respect to the controls HIV-1. At day D8 the determination of reverse transcriptase is carried out. When the cells are not infected thus it is a protection by the tested anti-viral agent.
The compounds the synthesis of which has been described in this patent application and the related structures given in the previous prior art, have an affect on the inhibition of the replication of BRU HIV-1 virus (BRU beeing the vital strain experienced) in the case where the infected cells are of the type MT4.
In the table I they have been described the results of the tests. Column 1 provides the names of the most representative studied compounds and in column 2 they are reported the so-called IC50 values (concentration of the component giving a 50% inhibition of the replication of HIV in the infected MT4 cells, measured at day D7 after infection). In observing and counting the number of formed syncitia in relation with that counted in the case of infected MT4 cells but untreated with antiviral compound, the value IC50 is determined.

[2] = tested on: duck hepatitis B virus (DHBV); assay: Anti-HBV test: effect on the replication of the duck hepatitis B virus (DHBV) in infected duck hepatocytes (viral DNA); type: cell-based; details: Hepatocyte, 240 h, read-out: IC50, inhibition of the replication of DHBV virus
Excerpt: Among the several methodologies used for evaluating the activity of compounds on Hepatitis B virus (HBV), the pattern of Hepatitis B virus of the duck (Duck HBV) has been utilized (J. Med. Virology (1990) 31 82-89; Viral Hepatitis and Liver disease (1988) 506-509; Hepatology (1989) 10 186-191). The material of culture to test <<in vitro>> the anti HBV activity of the compounds is made of duck hepatocytes infected by the duck Hepatitis B virus (DHBV) (Antimicrob. Agents Chemother. (1989) 33 336-339; J. Med. Virology 40,59-64; Antivir Res. (1993) 21, 155-171; Antimicrob. Agents Chemother. (1993) 37 1539-1542). Indeed the Hepatitis B virus of the duck is recognized as being very close to the human hepatitis B virus (Viral Hepatitis and Liver Disease (1988) 526-529. Antiviral Research (1987) 8189-199). Under standardized conditions (Virology (1989) 171 564-572) the cultures of duck hepatocytes allow the complete replication of DHBV. The antiviral activity of the tested compounds has been measured as a function of the amount of viral DNA produced during 10 days of culture of the infected hepatocytes.
A young male duck 3 weeks old, affected by DHBV, is used for the production of hepatocytes. The duck is killed under anesthesia and the isolation of hepatocytes is carried out using the methodology of Guillouzou (Research in isolated and cultured hepatocytes, J. Libbey Eurotex Ltd / INSERM, 1986). The cells are cultured in the Leibowitz's medium and 5 μg/ml bovine insuline, 7×10^-5 mole cortisone hemisuccinate and 1,5% dimethylsulfoxide (DMSO) are added thereto. The density of the cells is 8×10^6 cells, they are sprayed in culture boxes of 100×20 mm. The tested compounds are added to the culture after the spread out of the cells. The medium is renewed every day, during 10 days. The production of viral DNA of the duck hepatitis B virus in the cells surpernatant is determined by means of hybridation method "Dot blot" according to Fourel and al. (Viral Hepatitis and Liver Disease, 1988, 506-509; Hepatology, 1989, 10, 186-191). Inhibition is expressed as a percentage of the DNA amount present on the supernatant of cells with regard to a culture infected by DHBV untreated with a nucleosidic derivative.
The most representative described compounds have been tested for their effect on the replication of the duck virus HBV (DHBV) along the protocol exposed in the experimental part of this document.

[3] = Human immunodeficiency virus 1, BRU HIV-1, MT4 cells, syncitia count, day D7 after infection, read-out: IC50 (concentration giving a 50% inhibition of the replication of HIV in the infected MT4 cells)
[4] = duck hepatocytes infected by DHBV, viral DNA in supernatant, dot blot, 10 days of culture

SMILES	IC50 [1, 3]	IC50 [2, 4]	IC50 ([1]; Human immunodeficiency virus 1, MT4, read-out: IC50 (concentration giving a 50% inhibition of the replication of HIV in the infected MT4 cells))	IC50 [2]
CN1C=C(C(=O)Nc2ccn([C@@H]3CS[C@H](CO)O3)c(=O)n2)Cc2ccccc21 (relative stereo) [Compound 10, cis 2-hydroxymethyl 5-[N^4-(1"-methyl 1", 4"-dihydro 3"-quinolinylcarbonyl)cytosin-1'yl]-1,3-oxathiolane]	1000 to 10000 nM	2000 nM	–	–
O=C(Nc1ccn([C@@H]2CS[C@H](CO)O2)c(=O)n1)c1cccnc1Nc1cccc(C(F)(F)F)c1 (relative stereo) [Compound 11, cis 2-hydroxymethyl-5-[N^4-(2-(a,a,a-trifluoro-m-toluidino)nicotinyl)-cytosin-1'yl]-1,3-oxathiolane]	< 100000 nM	–	–	–
O=C(Nc1ccn([C@@H]2CS[C@H](CO)O2)c(=O)n1)c1cnc2ccccc2c1 (relative stereo) [Compound 8]	10000 nM	2000 nM	–	–
O=C(Nc1ccn([C@@H]2CS[C@H](CO)O2)c(=O)n1)c1cccnc1 (relative stereo) [Compound 2, Cis 2-(hydroxymethyl)-5 [N^4-(3"-pyridinylcarbonyl)cytosin-1'-yl]-1,3-oxathiolan]	100 to 1000 nM	2000 ± 500 nM	–	–
Nc1ccn([C@H]2CS[C@@H](CO)O2)c(=O)n1 [BCH-189, 2',3'-dideoxy 3'-thiacytidine, reference compound]	1000 nM	1000 ± 500 nM	–	–
C[n+]1cc(C(=O)Nc2ccn([C@@H]3CS[C@H](CO)O3)c(=O)n2)cc2ccccc21 (relative stereo) [Compound 9, cis 2-hydroxymethyl 5-[N^4-(1"-methyl 3"-quinolinyicarbonyl)cytosin-1'yl]-1,3-oxathiolane]	–	–	> 100000 nM	2000 nM

From US5708000A, “N4-substituted cytosinyl 1,3-oxathiolane nucleoside analogues, and their antiviral activity” (Laboratoire Laphal, priority 1994, dated 1998)
